According to patent US10874739B2, “Near-IR light-cleavable conjugates and conjugate precursors” (The United States of America, as represented by the …, priority 2016, dated 2020):

Columns and labels:
MCF-7 (EGFR−) = assay: Near-IR light-dependent growth inhibition, MTT, pre-incubation assay (media exchanged prior to photolysis); format: cell-based, human; conditions: ±hν
Procedure: (§1) MDA-MB-468 (EGFR overexpression) and MCF-7 (normal EGFR expression) human breast cancer cell lines were obtained from the NCI DTP, DCTD Tumor Repository. MDA-MB-468 was cultured in RPMI supplemented with 2 mM L-glutamine, 11 mM D-glucose, 24 mM sodium bicarbonate, 10% heat-inactivated fetal bovine serum, 100 units/mL penicillin, 100 μg/mL streptomycin, and 0.25 μg/mL amphotericin B. MCF-7 was cultured in DMEM supplemented with 4 mM L-glutamine, 25 mM D-glucose, 44 mM sodium bicarbonate, 10% heat-inactivated fetal bovine serum, 100 units/mL penicillin, 100 μg/mL streptomycin, and 0.25 μg/mL amphotericin B. Both cell lines were grown at 37° C. in an atmosphere of 20% O2 and 5% CO2. Stock cultures were maintained in continuously exponential growth by weekly passage of the appropriate number of cells following trypsinization with 0.25% Trypsin-EDTA (0.9 mM) in PBS.
(§2) MDA-MB-468 or MCF-7 cells were seeded into 96-well plates (5×10^4 cells/well) and allowed to adhere overnight. […] Irradiation times may be calculated according to the following formula:
(§3) [formula] […] Media was removed, 100 μL of DMSO added to each well to solubilize MTT formazan, and absorbance at 550 nm was recorded using a microplate reader. Drug effects were expressed as % cell viability relative to the DMSO (no inhibitor) control. […]

MDA-MB-468 (EGFR+) = assay: as above; format: cell-based, human; conditions: ±hν
Procedure: as §1, §2, §3

Work on `CN(C)CCOc1ccc2[nH]c(C(=O)N3C[C@@H](CCl)c4c3cc(O)c3ccccc43)cc2c1` [DuoDM, duocarmycin DM, reference compound] yielded an IC50 (MCF-7 (EGFR−)) of 0.0133 ± 0.0011 nM and an IC50 (MDA-MB-468 (EGFR+)) of 0.007 ± 0.0006 nM.
